Test results reported in ChEMBL document CHEMBL1201862, “PubChem BioAssay data set” (2004).
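Dose response: 5 concentrations. Exposure: 48 h. Format: 96-well plates. Endpoint: linear interpolation; highest concentration if not reached. GI50: concentration for 50% inhibition of growth.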 Calls of active or inactive are those of the source. No stated cut-off is given here; in the data, active = GI50 up to about 1.1 µM and inactive = higher.

Key:
Assay in all cases: NCI anticancer screen, dose series, 48 h
[1] = system: DU-145
[2] = system: MOLT-4
[3] = system: HCT-15
[4] = system: RPMI-8226
[5] = system: OVCAR-5
[6] = system: NCI-H522
[7] = system: SF-539
[8] = system: HCT-116
[9] = system: K562
[10] = system: UACC-257
[11] = system: SK-MEL-5
[12] = system: M14
[13] = system: UO-31
[14] = system: KM12
[15] = system: SF-268
[16] = system: Hs-578T
[17] = system: ACHN
[18] = system: MDA-MB-231
[19] = system: SN12C
[20] = system: A549
[21] = system: SR
[22] = system: IGROV-1
[23] = system: U-251
[24] = system: NCI-H226
[25] = system: OVCAR-8
[26] = system: OVCAR-3
[27] = system: CAKI-1
[28] = system: SK-MEL-2
[29] = system: Malme-3M
[30] = system: SW-620
[31] = system: MDA-N
[32] = system: A498
[33] = system: TK-10
[34] = system: T47D
[35] = system: NCI-H23
[36] = system: MDA-MB-435
[37] = system: SK-MEL-28
[38] = system: NCI/ADR-RES
[39] = system: OVCAR-4
[40] = system: CCRF-CEM
[41] = system: RXF 393
[42] = system: PC-3
[43] = system: SNB-75
[44] = system: 786-0
[45] = system: BT-549
[46] = system: MCF7
[47] = system: SNB-19
[48] = system: HT-29
[49] = system: LOX IMVI
[50] = system: EKVX
[51] = system: COLO 205
[52] = system: SF-295
[53] = system: SK-OV-3
[54] = system: UACC-62
[55] = system: HOP-62
[56] = system: HCC 2998
[57] = system: HOP-92
[58] = system: NCI-H460

`C[N+]1(C)[C@@H]2CC[C@H]1C[C@@H](OC(=O)C(CO)c1ccccc1)C2` (some centres not stated) [ATROPINE METHYLBROMIDE] was tested, and the GI50 [1] was > 100 µM (inactive), the GI50 [2] was > 100 µM (inactive) and the GI50 [3] was > 100 µM. The GI50 [4] was > 100 µM (inactive), the GI50 [5] was > 100 µM (inactive) and the GI50 [6] was > 100 µM (inactive). For the same compound, the GI50 [7] was > 100 µM (inactive), the GI50 [8] was > 100 µM (inactive) and the GI50 [9] was > 100 µM (inactive). For the same compound, the GI50 [10] was > 100 µM (inactive), the GI50 [11] was > 100 µM (inactive) and the GI50 [12] was > 100 µM (inactive). The GI50 [13] was > 100 µM (inactive), the GI50 [14] was > 100 µM (inactive) and the GI50 [15] was > 100 µM (inactive). For the same compound, the GI50 [16] was > 100 µM (inactive), the GI50 [17] was > 100 µM (inactive) and the GI50 [18] was > 100 µM (inactive). For the same compound, the GI50 [19] was > 100 µM (inactive), the GI50 [20] was > 100 µM (inactive) and the GI50 [21] was > 100 µM (inactive). For the same compound, the GI50 [22] was > 100 µM (inactive), the GI50 [23] was > 100 µM (inactive) and the GI50 [24] was > 100 µM (inactive). For the same compound, the GI50 [25] was > 100 µM (inactive), the GI50 [26] was > 100 µM (inactive) and the GI50 [27] was > 100 µM (inactive). The GI50 [28] was > 100 µM (inactive), the GI50 [29] was > 100 µM (inactive) and the GI50 [30] was > 100 µM (inactive). The GI50 [31] was > 100 µM (inactive), the GI50 [32] was > 100 µM (inactive) and the GI50 [33] was > 100 µM (inactive). For the same compound, the GI50 [34] was > 100 µM (inactive), the GI50 [35] was > 100 µM (inactive) and the GI50 [36] was > 100 µM (inactive). For the same compound, the GI50 [37] was > 100 µM (inactive), the GI50 [38] was > 100 µM (inactive) and the GI50 [39] was > 100 µM (inactive). For the same compound, the GI50 [40] was > 100 µM (inactive), the GI50 [41] was > 100 µM (inactive) and the GI50 [42] was > 100 µM (inactive). For the same compound, the GI50 [43] was > 100 µM (inactive), the GI50 [44] was > 100 µM (inactive) and the GI50 [45] was > 100 µM (inactive). For the same compound, the GI50 [46] was > 100 µM (inactive), the GI50 [47] was > 100 µM (inactive) and the GI50 [48] was > 100 µM (inactive). For the same compound, the GI50 [49] was > 100 µM (inactive), the GI50 [50] was > 100 µM (inactive) and the GI50 [51] was > 100 µM (inactive). The GI50 [52] was > 100 µM (inactive), the GI50 [53] was > 100 µM (inactive) and the GI50 [54] was > 100 µM (inactive). For the same compound, the GI50 [55] was > 100 µM (inactive).
With `COc1ccc(C(=O)/C=C/c2ccc(OCC#N)cc2)cc1OC` the GI50 [1] was 11.6 µM (inactive), the GI50 [2] was 10.3 µM (inactive) and the GI50 [3] was 20 µM. For the same compound, the GI50 [5] was > 10 µM (inactive), the GI50 [6] was 16.8 µM (inactive) and the GI50 [7] was 17.9 µM (inactive). The GI50 [8] was 5.09 µM (inactive), the GI50 [9] was 5.52 µM (inactive) and the GI50 [10] was > 10 µM (inactive). The GI50 [11] was 18.3 µM (inactive), the GI50 [12] was 16.4 µM (inactive) and the GI50 [13] was 18 µM (inactive). For the same compound, the GI50 [14] was 5.33 µM (inactive), the GI50 [15] was 26.6 µM (inactive) and the GI50 [16] was 27.4 µM (inactive). The GI50 [17] was 30.1 µM (inactive), the GI50 [56] was 18.2 µM (inactive) and the GI50 [18] was 13.8 µM (inactive). The GI50 [19] was 16.4 µM (inactive), the GI50 [20] was 29.1 µM (inactive) and the GI50 [21] was 11.8 µM (inactive). For the same compound, the GI50 [22] was 30.5 µM (inactive), the GI50 [23] was 14.3 µM (inactive) and the GI50 [24] was 19.5 µM (inactive). The GI50 [25] was 28 µM (inactive), the GI50 [57] was 22.6 µM (inactive) and the GI50 [26] was 21.2 µM (inactive). The GI50 [27] was 17.4 µM (inactive), the GI50 [58] was 27.7 µM (inactive) and the GI50 [29] was 20.9 µM (inactive). The GI50 [30] was 7.16 µM (inactive), the GI50 [31] was > 10 µM (inactive) and the GI50 [32] was > 10 µM (inactive). For the same compound, the GI50 [33] was 26.9 µM (inactive), the GI50 [34] was 5.79 µM (inactive) and the GI50 [35] was 21.9 µM (inactive). For the same compound, the GI50 [36] was 17.5 µM (inactive), the GI50 [37] was 14.6 µM (inactive) and the GI50 [38] was 18.5 µM (inactive). For the same compound, the GI50 [39] was 40.7 µM (inactive), the GI50 [40] was 3.21 µM (inactive) and the GI50 [41] was 13.2 µM (inactive). For the same compound, the GI50 [42] was > 10 µM (inactive), the GI50 [43] was 3.72 µM (inactive) and the GI50 [44] was 19.9 µM (inactive). The GI50 [45] was 15.5 µM (inactive), the GI50 [46] was 3.15 µM (inactive) and the GI50 [47] was 15.1 µM (inactive). The GI50 [48] was 22.3 µM (inactive), the GI50 [50] was 14.9 µM (inactive) and the GI50 [51] was 11.9 µM (inactive). The GI50 [52] was > 10 µM (inactive), the GI50 [53] was 26.5 µM (inactive) and the GI50 [54] was 16.7 µM (inactive). The GI50 [55] was 15.5 µM (inactive).
In the case of `Nc1ncnc2c1cnn2COCC(O)CO` (configuration not stated), the GI50 [1] is reported as > 100 µM (inactive), the GI50 [2] is reported as > 100 µM (inactive) and the GI50 [3] is reported as > 100 µM. The GI50 [4] was > 100 µM (inactive), the GI50 [5] was > 100 µM (inactive) and the GI50 [6] was > 100 µM (inactive). The GI50 [7] was > 100 µM (inactive), the GI50 [8] was > 100 µM (inactive) and the GI50 [9] was > 100 µM (inactive). For the same compound, the GI50 [10] was > 100 µM (inactive), the GI50 [11] was > 100 µM (inactive) and the GI50 [12] was > 100 µM (inactive). For the same compound, the GI50 [13] was > 100 µM (inactive), the GI50 [14] was > 100 µM (inactive) and the GI50 [15] was > 100 µM (inactive). For the same compound, the GI50 [16] was > 100 µM (inactive), the GI50 [17] was > 100 µM (inactive) and the GI50 [56] was > 100 µM (inactive). The GI50 [18] was > 100 µM (inactive), the GI50 [19] was > 100 µM (inactive) and the GI50 [20] was > 100 µM (inactive). For the same compound, the GI50 [21] was > 100 µM (inactive), the GI50 [22] was > 100 µM (inactive) and the GI50 [23] was > 100 µM (inactive). For the same compound, the GI50 [24] was > 100 µM (inactive), the GI50 [25] was > 100 µM (inactive) and the GI50 [57] was > 100 µM (inactive). The GI50 [26] was > 100 µM (inactive), the GI50 [27] was > 100 µM (inactive) and the GI50 [28] was > 100 µM (inactive). The GI50 [58] was > 100 µM (inactive), the GI50 [29] was > 100 µM (inactive) and the GI50 [30] was > 100 µM (inactive). For the same compound, the GI50 [31] was > 100 µM (inactive), the GI50 [32] was > 100 µM (inactive) and the GI50 [33] was > 100 µM (inactive). For the same compound, the GI50 [34] was > 100 µM (inactive), the GI50 [35] was > 100 µM (inactive) and the GI50 [36] was > 100 µM (inactive). The GI50 [37] was > 100 µM (inactive), the GI50 [38] was > 100 µM (inactive) and the GI50 [39] was > 100 µM (inactive). For the same compound, the GI50 [40] was > 100 µM (inactive), the GI50 [41] was > 100 µM (inactive) and the GI50 [42] was > 100 µM (inactive). For the same compound, the GI50 [44] was > 100 µM (inactive), the GI50 [45] was > 100 µM (inactive) and the GI50 [46] was > 100 µM (inactive). The GI50 [47] was > 100 µM (inactive), the GI50 [48] was > 100 µM (inactive) and the GI50 [49] was > 100 µM (inactive). The GI50 [50] was > 100 µM (inactive), the GI50 [51] was > 100 µM (inactive) and the GI50 [52] was > 100 µM (inactive). For the same compound, the GI50 [53] was > 100 µM (inactive), the GI50 [54] was > 100 µM (inactive) and the GI50 [55] was > 100 µM (inactive).
